Data: patent publication US11053234B2 (GlaxoSmithKline Intellectual Property Development Limited, priority 2016, dated 2021)

Target: T1, haematopoietic prostaglandin D synthase (H-PGDS) (Homo sapiens, UniProt O60760)
T1 construct: Full length human H-PGDS cDNA (Invitrogen Ultimate ORF 10H13026) was amplified by PCR; 6-His (N); TEV protease cleavage site (N); made in house; host or cells: E. coli BL21 (DE3*), vector pET22b+
Experiment: H-PGDS RapidFire high throughput mass spectrometry assay (conversion of PGH2 to PGD2)
Format: biochemical
Settings: 10 nM H-PGDS, PGH2 formed in situ by COX-2 from arachidonic acid; read-out: Potency Range (mean pIC50) (converted)
Protocol: H-PGDS RapidFire™ High Throughput Mass Spectrometry Assay
The H-PGDS RapidFire™ mass spectrometric assay monitors conversion of prostaglandin H2 (PGH2) to prostaglandin D2 (PGD2) by haematopoietic prostaglandin D synthase (H-PGDS). In the assay format described here, the substrate (PGH2) is formed in situ by the action of cyclooxygenase-2 on arachidonic acid. This first step is set up to be fast, and generates a burst of PGH2 at ˜10 μM. The PGH2 is then further converted to PGD2 by the H-PGDS enzyme. […] Plates are then read on the RapidFire™ high throughput solid phase extraction system (Agilent) which incorporates a solid phase extraction step coupled to a triple quadrupole mass spectrometer (AB SCIEX). Relative levels of PGD2 and PGF2α, which acts as a surrogate for substrate, are measured and a percent conversion calculated.
Expression and Purification of H-PGDS Protein
Full length human H-PGDS cDNA (Invitrogen Ultimate ORF 10H13026) was amplified by PCR with the addition of a 5′ 6-His tag and TEV protease cleavage site. The PCR product was digested with Ndel and Xhol and ligated into pET22b+ (Merck Novagen®). Expression was carried out in E. coli strain BL21 (DE3*) using auto-induction Overnight Express™ Instant TB medium (Merck Novagen®) supplemented with 1% glycerol. The culture was first grown at 37° C. and the temperature was reduced to 25° C. when OD600 reached 2.0. Cells were harvested by centrifugation after a further 18 hr. 10 g of E. coli cell pellet was suspended to a total volume of 80 mL in lysis buffer (20 mM Tris-Cl pH 7.5, 300 mM NaCl, 20 mM imidazole, 5 mM β-mercaptoethanol, 10% glycerol). 1 mg/mL protease inhibitors (Protease Inhibitor Cocktail Set III, Merck Calbiochem®) and 1 mg/mL lysozyme were added to the cell suspension. The suspension was then sonicated for 5 min (UltraSonic Processor VCX 750, Cole-Parmer Instrument Co.) with a micro probe (50% amplitude, 10 sec on/off) and then centrifuged at 100,000 g for 90 min (at 4° C.). The supernatant was loaded onto a Ni-NTA HiTrap column (5 mL, GE Healthcare, pre-equilibrated in lysis buffer). The column was washed with 10 column volumes of lysis buffer and eluted with lysis buffer containing 500 mM imidazole. The pooled protein peak fractions were concentrated using a 10 kDa centrifugal filter at 3500 g and 4° C. (Amicon Ultra-15 centrifugal filter unit with Ultracel-10 membrane from Millipore). Further purification of the concentrated protein was carried out using gel filtration chromatography on a HiLoad 26/600 Superdex 75 preparative grade column (GE Healthcare Life Sciences) using 50 mM Tris pH 7.5, 50 mM NaCl, 1 mM dithiothreitol, 1 mM MgCl2. Fractions containing the protein were pooled, concentrated as described above, and stored at −80° C.
Expression and Purification of Cyclooxygenase-2 (COX-2) Protein
The full length human COX-2 gene (accession number L15326) was amplified by PCR to generate an EcoRI-HindIII fragment containing an in-frame FLAG tag. This was subcloned into pFastBac 1 (Invitrogen). The COX2 FLAG plasmid was recombined into the baculovirus genome according to the BAC-to-BAC protocol described by Invitrogen. Transfection into Spodoptera frugiperda (Sf9) insect cells was performed using Cellfectin (Invitrogen), according to the manufacturer's protocol. […] Cells were harvested using a continuous feed centrifuge run at 2500 g at a rate of approximately 2 L/min with cooling. The resultant cell slurry was re-centrifuged in pots (2500 g, 20 min, 4° C.) and the cell paste was stored at −80° C. […] The suspension was sonicated in 500 mL batches for 8×5 seconds at 10 u amplitude with the medium tip of an MSE probe sonicator and subsequently incubated at 4° C. for 90 min with gentle stirring. The lysate was centrifuged at 12000 rpm for 45 min at 4° C. in a Sorvall SLA1500 rotor. The supernatant (1400 mL) was added to 420 mL of 20 mM Tris-Cl pH 7.4, 150 mM NaCl, 0.1 mM EDTA to reduce the concentration of n-octyl-6-D-glucopyranoside to 1% w/v.

T1 sequence (O60760 whole entry): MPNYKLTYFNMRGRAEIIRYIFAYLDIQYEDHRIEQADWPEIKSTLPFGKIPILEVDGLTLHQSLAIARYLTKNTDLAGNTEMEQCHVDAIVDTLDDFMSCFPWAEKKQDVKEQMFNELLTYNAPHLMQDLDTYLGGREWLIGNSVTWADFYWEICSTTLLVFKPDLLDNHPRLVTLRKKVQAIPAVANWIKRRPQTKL

Q: With `COc1ccc(F)cc1O[C@H]1C[C@H](C(=O)N[C@H]2CC[C@H](NC(C)C(F)(F)F)CC2)C1` (mixture of isomers) [Example 161, Racemic (trans)-3-(5-Fluoro-2-methoxyphenoxy)-N-((trans)-4-((1,1,1-trifluoropropan-2-yl)amino)cyclohexyl)cyclobutanecarboxamide] as the compound, how does the IC50 read?
A: 10 to 79.4 nM

Q: For `Cc1cnc(N2CC(NC(=O)[C@H]3C[C@H](Oc4cccc5scnc45)C3)C2)nc1` [Example 39, (trans)-3-(Benzo[d]thiazol-4-yloxy)-N-(1-(5-methylpyrimidin-2-yl)azetidin-3-yl)cyclobutanecarboxamide], which IC50 is on record?
A: 10 to 79.4 nM

Q: With `Cc1ccc(CNC(=O)[C@H]2C[C@H](Oc3cccc4scnc34)C2)o1` [Example 255, (trans)-3-(Benzo[d]thiazol-4-yloxy)-N-((5-methylfuran-2-yl)methyl)cyclobutanecarboxamide] as the compound, how does the IC50 read?
A: 100 to 1000 nM

Q: `O=C(NC1CN(c2ncc(F)cn2)C1)[C@H]1C[C@H](Oc2cccc3scnc23)C1` [Example 78, (trans)-3-(Benzo[d]thiazol-4-yloxy)-N-(1-(5-fluoropyrimidin-2-yl)azetidin-3-yl)cyclobutanecarboxamide] was tested. Which IC50 did it give?
A: 10 to 79.4 nM

Q: For `CC(C)(O)c1csc(NC(=O)N2CC(Oc3cccc4scnc34)C2)n1` [Example 56, 3-(Benzo[d]thiazol-4-yloxy)-N-(4-(2-hydroxypropan-2-yl)thiazol-2-yl)azetidine-1-carboxamide], which IC50 is on record?
A: 100 to 1000 nM

Q: With `O=C(Nc1nnc(C2CC2)s1)[C@H]1C[C@H](Oc2cccc3cccnc23)C1` [Example 199, (trans)-N-(5-Cyclopropyl-1,3,4-thiadiazol-2-yl)-3-(quinolin-8-yloxy)cyclobutanecarboxamide] as the compound, how does the IC50 read?
A: 10 to 79.4 nM

Q: How did the IC50 turn out when `CC(C)(O)[C@@H]1CC[C@@H](NC(=O)[C@H]2C[C@H](Oc3cccc4cccnc34)C2)CO1` (racemic) [Example 195, Racemic (trans)-N-((trans)-6-(2-Hydroxypropan-2-yl)tetrahydro-2H-pyran-3-yl)-3-(quinolin-8-yloxy)cyclobutanecarboxamide] was run?
A: 100 to 1000 nM

Q: How did the IC50 turn out when `O=C(N[C@H]1CC[C@H](N2CC(F)(F)C2)CC1)[C@H]1C[C@H](Oc2cc(F)ccc2OC(F)F)C1` [Example 19, (trans)-N-((trans)-4-(3,3-Difluoroazetidin-1-yl)cyclohexyl)-3-(2-(difluoromethoxy)-5-fluorophenoxy)cyclobutanecarboxamide] was run?
A: 10 to 79.4 nM

Q: Which IC50 does the source give for `CC(C)(O)[C@H]1CC[C@H](NC(=O)[C@H]2C[C@H](Oc3cccn4ccnc34)C2)CC1` [Example 298, (trans)-N-((trans)-4-(2-Hydroxypropan-2-yl)cyclohexyl)-3-(imidazo[1,2-a]pyridin-8-yloxy)cyclobutanecarboxamide] here?
A: 100 to 1000 nM

Q: Which IC50 does the source give for `COC(=O)N1CCCC(NC(=O)N2CC(Oc3cccc4scnc34)C2)C1` (racemic) [Example 93, Racemic Methyl 3-(3-(benzo[d]thiazol-4-yloxy)azetidine-1-carboxamido)piperidine-1-carboxylate] here?
A: 100 to 1000 nM

Q: `CC(=O)c1cnc(NC(=O)[C@H]2C[C@H](Oc3cccc4cccnc34)C2)o1` [Example 174, (trans)-N-(5-Acetvloxazol-2-yl)-3-(quinolin-8-yloxy)cyclobutanecarboxamide] was tested. Which IC50 did it give?
A: 10 to 79.4 nM

Q: For `CC(C)(O)[C@H]1C[C@H](NC(=O)[C@H]2C[C@H](Oc3cccc4cccnc34)C2)C1` [Example 223, (trans)-N-((trans)-3-(2-Hydroxypropan-2-yl)cyclobutyl)-3-(quinolin-8-yloxy)cyclobutanecarboxamide], which IC50 is on record?
A: 100 to 1000 nM

Q: For `COc1ccc(F)cc1O[C@H]1C[C@H](C(=O)Nc2ncc(C(C)=O)s2)C1` [Example 164, (trans)-N-(5-Acetylthiazol-2-yl)-3-(5-fluoro-2-methoxyphenoxy)cyclobutanecarboxamide], which IC50 is on record?
A: < 10 nM

Q: `CC(N[C@H]1CC[C@H](NC(=O)[C@H]2C[C@H](Oc3cccc4cccnc34)C2)CC1)C(F)F` (mixture of isomers) [Example 180, Racemic (trans)-N-((trans)-4-((1,1-Difluoropropan-2-yl)amino)cyclohexyl)-3-(quinolin-8-yloxy)cyclobutanecarboxamide] was tested. Which IC50 did it give?
A: 100 to 1000 nM
